# Measurements published in ChEMBL document CHEMBL4371002 (J Med Chem, 2018).
# Square brackets hold non-standard residues; d marks the D form. Peptide text beside a SMILES is read from it. * marks the point of attachment. X1 = CC(C)[C@H](/C=C(\Cl)[C@H](C)N)C(=O)*; X3 = CC(C)[C@H](/C=C(\F)[C@H](C)N)C(=O)*; Dip = N[C@H](C(=O)O)C(c1ccccc1)c1ccccc1; X4 = C[C@H](/C=C(\Cl)[C@H](C)N)C(=O)*; X2 = C[C@H](/C=C(\F)[C@H](C)N)C(=O)*; Abu(4,4-F2) = N[C@@H](CC(F)F)C(=O)O; PhLac = O=C(O)[C@@H](O)Cc1ccccc1; Cha = N[C@@H](CC1CCCCC1)C(=O)O; Abu = CC[C@H](N)C(=O)O
# Tests used:
# [1] = molecular target: T1, Parathyroid hormone/parathyroid hormone-related peptide receptor (Homo sapiens, UniProt Q03431)
# T1 sequence (Q03431 whole entry): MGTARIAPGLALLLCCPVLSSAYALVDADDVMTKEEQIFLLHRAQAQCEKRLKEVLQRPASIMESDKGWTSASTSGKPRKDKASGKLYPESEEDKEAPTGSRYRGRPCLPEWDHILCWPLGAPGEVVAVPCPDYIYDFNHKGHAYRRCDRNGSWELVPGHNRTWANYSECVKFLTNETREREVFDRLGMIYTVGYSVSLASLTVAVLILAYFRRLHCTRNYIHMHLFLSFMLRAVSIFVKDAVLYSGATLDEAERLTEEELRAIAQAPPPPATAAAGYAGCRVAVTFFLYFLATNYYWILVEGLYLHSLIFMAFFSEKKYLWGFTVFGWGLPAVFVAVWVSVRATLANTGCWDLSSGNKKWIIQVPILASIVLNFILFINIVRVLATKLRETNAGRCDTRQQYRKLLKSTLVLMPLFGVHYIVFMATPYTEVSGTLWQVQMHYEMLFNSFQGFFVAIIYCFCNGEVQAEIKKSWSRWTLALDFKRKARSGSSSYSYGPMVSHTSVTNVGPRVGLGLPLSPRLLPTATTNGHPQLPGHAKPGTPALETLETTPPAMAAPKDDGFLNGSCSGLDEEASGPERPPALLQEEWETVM
# [2] = molecular target: T1, Parathyroid hormone/parathyroid hormone-related peptide receptor; test: biochemical
# [3] = molecular target: Delta-type opioid receptor (Homo sapiens, UniProt P41143)
# NS3 protease = NS3 protease (Hepacivirus C, UniProt C1KIQ2); parameters: species or system Hepacivirus hominis
# Steryl-sulfatase = molecular target: T2, Steryl-sulfatase (Homo sapiens, UniProt P08842)
# T2 sequence (P08842 whole entry): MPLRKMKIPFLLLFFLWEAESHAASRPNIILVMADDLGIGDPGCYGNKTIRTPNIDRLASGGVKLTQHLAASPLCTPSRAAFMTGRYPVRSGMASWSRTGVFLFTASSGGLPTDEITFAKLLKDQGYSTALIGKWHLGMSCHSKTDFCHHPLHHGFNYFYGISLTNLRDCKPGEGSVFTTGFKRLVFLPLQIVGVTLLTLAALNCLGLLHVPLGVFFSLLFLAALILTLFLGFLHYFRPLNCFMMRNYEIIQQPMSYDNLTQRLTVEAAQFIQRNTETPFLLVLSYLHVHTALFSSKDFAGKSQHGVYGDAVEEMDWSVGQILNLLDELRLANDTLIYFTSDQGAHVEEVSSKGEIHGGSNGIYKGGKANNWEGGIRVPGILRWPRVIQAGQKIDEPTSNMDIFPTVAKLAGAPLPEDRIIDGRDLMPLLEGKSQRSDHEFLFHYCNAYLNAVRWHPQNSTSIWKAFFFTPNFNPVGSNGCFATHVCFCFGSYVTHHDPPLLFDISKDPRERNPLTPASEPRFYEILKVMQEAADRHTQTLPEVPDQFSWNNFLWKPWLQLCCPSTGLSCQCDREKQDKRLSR
# [4] = molecular target: Trypanothione reductase (Trypanosoma cruzi) (UniProt P28593)
# Carbonic anhydrase 2 = Carbonic anhydrase 2 (Bos taurus, UniProt P00921)
# physchem [5] = test: physchem
# Bacterial 70S ribosome = format: subcellular, Bacteria
# Staphylococcus hominis = test: microbe, parasite or virus in culture; format: functional; conditions: IP8203
# physchem [6] = conditions: buffer, pH 7.4
# Carbonic anhydrase 2, sequence (P00921 whole entry): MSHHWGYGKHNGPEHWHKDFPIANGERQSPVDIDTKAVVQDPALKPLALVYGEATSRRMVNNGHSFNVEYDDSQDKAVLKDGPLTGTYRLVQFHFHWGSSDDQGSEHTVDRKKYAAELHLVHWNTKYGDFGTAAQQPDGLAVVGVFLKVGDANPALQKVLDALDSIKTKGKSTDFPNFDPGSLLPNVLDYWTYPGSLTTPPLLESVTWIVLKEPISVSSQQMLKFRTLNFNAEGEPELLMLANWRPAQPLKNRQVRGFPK
# NS3 protease, sequence (C1KIQ2 whole entry): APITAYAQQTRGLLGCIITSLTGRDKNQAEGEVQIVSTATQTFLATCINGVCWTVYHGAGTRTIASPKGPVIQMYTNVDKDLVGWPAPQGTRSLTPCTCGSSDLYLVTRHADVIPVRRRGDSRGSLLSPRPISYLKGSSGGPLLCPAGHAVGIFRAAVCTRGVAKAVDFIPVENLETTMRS
# Delta-type opioid receptor, sequence (P41143 whole entry): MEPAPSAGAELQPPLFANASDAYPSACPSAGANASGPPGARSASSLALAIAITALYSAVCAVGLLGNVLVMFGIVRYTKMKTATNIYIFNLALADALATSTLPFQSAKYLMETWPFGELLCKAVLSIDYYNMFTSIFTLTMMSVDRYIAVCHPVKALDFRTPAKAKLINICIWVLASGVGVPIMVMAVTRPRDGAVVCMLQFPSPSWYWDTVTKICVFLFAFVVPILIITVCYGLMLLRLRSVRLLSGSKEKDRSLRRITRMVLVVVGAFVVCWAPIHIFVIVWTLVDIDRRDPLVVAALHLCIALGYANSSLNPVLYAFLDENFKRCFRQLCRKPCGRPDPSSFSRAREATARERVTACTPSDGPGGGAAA
# Trypanothione reductase (Trypanosoma cruzi), sequence (P28593 whole entry, looked up): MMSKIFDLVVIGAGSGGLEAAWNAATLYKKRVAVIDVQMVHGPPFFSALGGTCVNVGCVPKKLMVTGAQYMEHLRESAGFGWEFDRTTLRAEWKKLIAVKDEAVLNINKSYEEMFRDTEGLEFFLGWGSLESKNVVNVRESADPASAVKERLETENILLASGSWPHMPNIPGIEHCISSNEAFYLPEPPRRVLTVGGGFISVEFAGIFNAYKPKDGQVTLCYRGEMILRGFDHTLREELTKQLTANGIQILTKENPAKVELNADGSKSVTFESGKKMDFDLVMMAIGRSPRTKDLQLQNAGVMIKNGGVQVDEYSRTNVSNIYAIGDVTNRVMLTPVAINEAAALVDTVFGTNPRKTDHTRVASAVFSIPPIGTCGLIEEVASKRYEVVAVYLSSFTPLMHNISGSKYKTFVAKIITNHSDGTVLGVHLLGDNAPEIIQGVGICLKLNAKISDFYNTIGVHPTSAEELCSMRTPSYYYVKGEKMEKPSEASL
structure (smiles),measurement,setting,value
CC[C@H](C)[C@H](NC(=O)[C@H](CCC(=O)O)NC(=O)[C@H](CO)NC(=O)[C@@H](/C=C(\F)[C@H](C)N)C(C)C)C(=O)N[C@@H](CCC(N)=O)C(=O)N[C@@H](CC(C)C)C(=O)N[C@@H](CCSC)C(=O)N[C@@H](Cc1c[nH]cn1)C(=O)N[C@@H](CC(N)=O)C(=O)N[C@@H](CC(C)C)C(=O)NCC(=O)N[C@@H](CCCCN)C(=O)N[C@@H](Cc1c[nH]cn1)C(=O)N[C@@H](CC(C)C)C(=O)N[C@@H](CC(N)=O)C(=O)N[C@@H](CO)C(=O)N[C@@H](CCSC)C(=O)N[C@@H](CCC(=O)O)C(=O)N[C@@H](CCCN=C(N)N)C(=O)N[C@H](C(=O)N[C@@H](CCC(=O)O)C(=O)N[C@@H](Cc1c[nH]c2ccccc12)C(=O)N[C@@H](CC(C)C)C(=O)N[C@@H](CCCN=C(N)N)C(=O)N[C@@H](CCCCN)C(=O)N[C@@H](CCCCN)C(=O)N[C@@H](CC(C)C)C(=O)N[C@@H](CCC(N)=O)C(=O)N[C@@H](CC(=O)O)C(=O)N[C@H](C(=O)N[C@@H](Cc1c[nH]cn1)C(=O)N[C@@H](CC(N)=O)C(=O)N[C@@H](Cc1ccccc1)C(=O)N[C@H](C(=O)N[C@@H](C)C(N)=O)C(C)C)C(C)C)C(C)C (X3-SEIQLMHNLGKHLNSMERVEWLRKKLQDVHNFVA-NH2),EC50,[1],4.4 nM
same,Kd,[2],1.26 nM
CC(C)C[C@H](NC(=O)[C@H](Cc1ccccc1)OC(=O)CNC(=O)CNC(=O)[C@@H](N)Cc1ccc(O)cc1)C(=O)O (H-YGG[PhLac]L-OH),Ki,[3],34 nM
CC[C@H](NC(=O)[C@H](CC1CCCCC1)NC(=O)[C@H](CCC(=O)O)NC(=O)[C@@H](NC(=O)[C@H](CCC(=O)O)NC(=O)[C@H](CC(=O)O)NC(C)=O)C(c1ccccc1)c1ccccc1)C(=O)O (Ac-DE[Dip]E[Cha][Abu]-OH),Ki,NS3 protease,700 nM
CC[C@H](C)[C@H](NC(=O)[C@H](CCC(=O)O)NC(=O)[C@H](CO)NC(=O)[C@H](C)/C=C(\F)[C@H](C)N)C(=O)N[C@@H](CCC(N)=O)C(=O)N[C@@H](CC(C)C)C(=O)N[C@@H](CCSC)C(=O)N[C@@H](Cc1c[nH]cn1)C(=O)N[C@@H](CC(N)=O)C(=O)N[C@@H](CC(C)C)C(=O)NCC(=O)N[C@@H](CCCCN)C(=O)N[C@@H](Cc1c[nH]cn1)C(=O)N[C@@H](CC(C)C)C(=O)N[C@@H](CC(N)=O)C(=O)N[C@@H](CO)C(=O)N[C@@H](CCSC)C(=O)N[C@@H](CCC(=O)O)C(=O)N[C@@H](CCCN=C(N)N)C(=O)N[C@H](C(=O)N[C@@H](CCC(=O)O)C(=O)N[C@@H](Cc1c[nH]c2ccccc12)C(=O)N[C@@H](CC(C)C)C(=O)N[C@@H](CCCN=C(N)N)C(=O)N[C@@H](CCCCN)C(=O)N[C@@H](CCCCN)C(=O)N[C@@H](CC(C)C)C(=O)N[C@@H](CCC(N)=O)C(=O)N[C@@H](CC(=O)O)C(=O)N[C@H](C(=O)N[C@@H](Cc1c[nH]cn1)C(=O)N[C@@H](CC(N)=O)C(=O)N[C@@H](Cc1ccccc1)C(=O)N[C@H](C(=O)N[C@@H](C)C(N)=O)C(C)C)C(C)C)C(C)C (X2-SEIQLMHNLGKHLNSMERVEWLRKKLQDVHNFVA-NH2),EC50,[1],9.1 nM
same,Kd,[2],6.31 nM
CC[C@H](C)[C@H](NC(=O)[C@H](CCC(=O)O)NC(=O)[C@H](CO)NC(=O)[C@H](C)/C=C(\Cl)[C@H](C)N)C(=O)N[C@@H](CCC(N)=O)C(=O)N[C@@H](CC(C)C)C(=O)N[C@@H](CCSC)C(=O)N[C@@H](Cc1c[nH]cn1)C(=O)N[C@@H](CC(N)=O)C(=O)N[C@@H](CC(C)C)C(=O)NCC(=O)N[C@@H](CCCCN)C(=O)N[C@@H](Cc1c[nH]cn1)C(=O)N[C@@H](CC(C)C)C(=O)N[C@@H](CC(N)=O)C(=O)N[C@@H](CO)C(=O)N[C@@H](CCSC)C(=O)N[C@@H](CCC(=O)O)C(=O)N[C@@H](CCCN=C(N)N)C(=O)N[C@H](C(=O)N[C@@H](CCC(=O)O)C(=O)N[C@@H](Cc1c[nH]c2ccccc12)C(=O)N[C@@H](CC(C)C)C(=O)N[C@@H](CCCN=C(N)N)C(=O)N[C@@H](CCCCN)C(=O)N[C@@H](CCCCN)C(=O)N[C@@H](CC(C)C)C(=O)N[C@@H](CCC(N)=O)C(=O)N[C@@H](CC(=O)O)C(=O)N[C@H](C(=O)N[C@@H](Cc1c[nH]cn1)C(=O)N[C@@H](CC(N)=O)C(=O)N[C@@H](Cc1ccccc1)C(=O)N[C@H](C(=O)N[C@@H](C)C(N)=O)C(C)C)C(C)C)C(C)C (X4-SEIQLMHNLGKHLNSMERVEWLRKKLQDVHNFVA-NH2),EC50,[1],5.5 nM
same,Kd,[2],1.26 nM
C[C@]12CC[C@@H]3c4ccc(CS(N)(=O)=O)cc4CC[C@H]3[C@@H]1CCC2=O,Ki,Steryl-sulfatase,350 µM
CC(C)(C)c1ccc(Nc2ccc(F)cc2NCCC[N+](C)(C)Cc2ccc(Cl)c(Cl)c2)cc1,Kic,[4],84 µM
C[N+](C)(CCCNc1cc(F)ccc1Nc1ccc(S(F)(F)(F)(F)F)cc1)Cc1ccc(Cl)c(Cl)c1,Kic,[4],28 µM
NS(=O)(=O)C(F)c1ccccc1 (stereo unspecified),IC50,Carbonic anhydrase 2,220 nM
same,pKa,physchem [5],8.8
CC1=C\[C@@H](O)C[C@H](F)Cc2nc(co2)C(=O)N2CCC[C@@H]2C(=O)O[C@H](C(C)C)[C@H](C)/C=C/C(=O)NC\C=C\1,IC50,Bacterial 70S ribosome,500 nM
same,MIC,Staphylococcus hominis,8 µg/mL
CC(C)C[C@H](NC(=O)[C@H](Cc1ccccc1)NC(=S)CNC(=O)CNC(=O)[C@@H](N)Cc1ccc(O)cc1)C(=O)O,Ki,[3],47 nM
CC(C)C[C@H](NC(=O)[C@@H](/C=C(\F)CNC(=O)CNC(=O)[C@@H](N)Cc1ccc(O)cc1)Cc1ccccc1)C(=O)O,Ki,[3],43 nM
same,logD,physchem [6],-0.11
C[N+](C)(CCCNc1cc(F)ccc1Nc1ccc(C(F)(F)F)cc1)Cc1ccc(Cl)c(Cl)c1,Kic,[4],24 µM
CC(C)C[C@H](NC(=O)[C@@H](/C=C/CNC(=O)CNC(=O)[C@@H](N)Cc1ccc(O)cc1)Cc1ccccc1)C(=O)O,Ki,[3],587 nM
same,logD,physchem [6],-0.07
CC[C@H](C)[C@H](NC(=O)[C@H](CCC(=O)O)NC(=O)[C@H](CO)NC(=O)[C@@H](/C=C(\Cl)[C@H](C)N)C(C)C)C(=O)N[C@@H](CCC(N)=O)C(=O)N[C@@H](CC(C)C)C(=O)N[C@@H](CCSC)C(=O)N[C@@H](Cc1c[nH]cn1)C(=O)N[C@@H](CC(N)=O)C(=O)N[C@@H](CC(C)C)C(=O)NCC(=O)N[C@@H](CCCCN)C(=O)N[C@@H](Cc1c[nH]cn1)C(=O)N[C@@H](CC(C)C)C(=O)N[C@@H](CC(N)=O)C(=O)N[C@@H](CO)C(=O)N[C@@H](CCSC)C(=O)N[C@@H](CCC(=O)O)C(=O)N[C@@H](CCCN=C(N)N)C(=O)N[C@H](C(=O)N[C@@H](CCC(=O)O)C(=O)N[C@@H](Cc1c[nH]c2ccccc12)C(=O)N[C@@H](CC(C)C)C(=O)N[C@@H](CCCN=C(N)N)C(=O)N[C@@H](CCCCN)C(=O)N[C@@H](CCCCN)C(=O)N[C@@H](CC(C)C)C(=O)N[C@@H](CCC(N)=O)C(=O)N[C@@H](CC(=O)O)C(=O)N[C@H](C(=O)N[C@@H](Cc1c[nH]cn1)C(=O)N[C@@H](CC(N)=O)C(=O)N[C@@H](Cc1ccccc1)C(=O)N[C@H](C(=O)N[C@@H](C)C(N)=O)C(C)C)C(C)C)C(C)C (X1-SEIQLMHNLGKHLNSMERVEWLRKKLQDVHNFVA-NH2),EC50,[1],7.9 nM
same,Kd,[2],1.26 nM
"CC(=O)N[C@@H](CC(=O)O)C(=O)N[C@@H](CCC(=O)O)C(=O)N[C@H](C(=O)N[C@@H](CCC(=O)O)C(=O)N[C@@H](CC1CCCCC1)C(=O)N[C@@H](CC(F)F)C(=O)O)C(c1ccccc1)c1ccccc1 (Ac-DE[Dip]E[Cha][Abu(4,4-F2)]-OH)",Ki,NS3 protease,30 nM
NS(=O)(=O)Cc1ccccc1 [PHENYLMETHANESULFONAMIDE],IC50,Carbonic anhydrase 2,630 nM
same,pKa,physchem [5],10.5
CC1=C\[C@@H](O)CC(=O)Cc2nc(co2)C(=O)N2CCC[C@@H]2C(=O)O[C@H](C(C)C)[C@H](C)/C=C/C(=O)NC\C=C\1 [VOLPRISTIN],IC50,Bacterial 70S ribosome,100 nM
same,MIC,Staphylococcus hominis,4 µg/mL
NS(=O)(=O)C(F)(F)c1ccccc1 [PHENYLDIFLUOROMETHANESULFONAMIDE],IC50,Carbonic anhydrase 2,58 nM
same,pKa,physchem [5],7.7
CC(=O)N[C@@H](CC(=O)O)C(=O)N[C@@H](CCC(=O)O)C(=O)N[C@H](C(=O)N[C@@H](CCC(=O)O)C(=O)N[C@@H](CC1CCCCC1)C(=O)N[C@@H](CS)C(=O)O)C(c1ccccc1)c1ccccc1 (Ac-DE[Dip]E[Cha]C-OH),Ki,NS3 protease,40 nM
